These results are taken from patent US7851475B2, “Substituted pyrrole-2, 5-diones as protein kinase C inhibitors” (Novartis AG, priority 2004, dated 2010).

One test addresses Human recombinant PKCθ (Homo sapiens, UniProt Q04759). Briefly: Protein Kinase C θ Assay.
The next test concerns the target T1, Human recombinant PKCα (Homo sapiens, UniProt P17252).
T1 construct: purchased Oxford Biomedical Research
Nature of the test: Protein Kinase Cα Assay. The class given is biochemical. The following applies: 10 μM 33P-ATP, 60 min room temperature.

For test [1], the system named is spleen cells from CBA and BALB/c mice. Briefly: Allogeneic Mixed Lymphocyte Reaction (MLR). It is filed as cell-based. The following applies: two-way MLR, CBA and BALB/c mouse spleen cells, four days incubation, read-out: IC50 MLR (3H-thymidine incorporation, proliferation). The procedure:
The two-way MLR is performed according to standard procedures (J. Immunol. Methods, 1973, 2, 279 and Meo T. et al., Immunological Methods, New York, Academic Press, 1979, 227-39). Briefly, spleen cells from CBA and BALB/c mice (1.6×10^5 cells from each strain per well in flat bottom tissue culture microtiter plates, 3.2×10^5 in total) are incubated in RPMI medium containing 10% FCS, 100 U/ml penicillin, 100 μg/ml streptomycin (Gibco BRL, Basel, Switzerland), 50 μM 2-mercaptoethanol (Fluka, Buchs, Switzerland) and serially diluted compounds. Seven three-fold dilution steps in duplicates per test compound are performed. After four days of incubation 1 μCi ^3H-thymidine is added. Cells are harvested after an additional five-hour incubation period, and incorporated ^3H-thymidine is determined according to standard procedures. Background values (low control) of the MLR are […].
[…] proliferation of BALB/c cells alone. Low controls are subtracted from all values. High controls without any sample are taken as 100% proliferation. […]

For test [2], the system named is Jurkat cells transfected with a human interleukin-2 promoter/reporter gene construct. Nature of the test: CD28 Costimulation Assay. The note with it: stimulated transfected Jurkat cells, 5.5 hours, stimulus not specified for these values, read-out: IC50 CD28 costimulation assay (luciferase reporter). The class given is cell-based. How it is done: The assay is performed with Jurkat cells transfected with a human interleukin-2 promoter/reporter gene construct as described by Baumann G et al. in Transplant. Proc. 1992; 24:43-8, the β-galactosidase reporter gene being replaced by the luciferase gene (de Wet J., et al., Mol. Cell. Biol. 1987, 7(2), 725-737). Cells are stimulated by solid phase-coupled antibodies or phorbol myristate acetate (PMA) and the Ca^++ ionophore ionomycin as follows. For antibody-mediated stimulation Microlite TM1 microtiter plates (Dynatech) are coated with 3 μg/ml goat anti-mouse IgG Fc antibodies (Jackson) in 55 μl phosphate-buffered saline (PBS) per well for three hours at RT. Plates are blocked after removing the antibodies by incubation with 2% bovine serum albumin (BSA) in PBS (300 μl per well) for 2 hours at RT. […] After incubation for 5.5 hours at 37° C. in 5% CO2, the level of luciferase is determined by bioluminescence measurement. […] Luciferase activity is assessed with a bioluminescence reader (Labsystem, Helsinki, Finland) after automatic addition of 50 μl per well luciferase reaction buffer containing 20 mM Tricine, 1.07 mM (MgCO3)4Mg(OH)2×5H2O, 2.67 mM MgSO4, 0.1 mM EDTA, 33.3 mM DTT, 270 μM coenzyme A, 470 μM luciferin (Chemie Brunschwig AG), 530 μM ATP, pH 7.8. […] The inhibition obtained in the presence of a test compound is calculated as percent inhibition of the high control. […]

Chain of Human recombinant PKCθ (Q04759 whole entry): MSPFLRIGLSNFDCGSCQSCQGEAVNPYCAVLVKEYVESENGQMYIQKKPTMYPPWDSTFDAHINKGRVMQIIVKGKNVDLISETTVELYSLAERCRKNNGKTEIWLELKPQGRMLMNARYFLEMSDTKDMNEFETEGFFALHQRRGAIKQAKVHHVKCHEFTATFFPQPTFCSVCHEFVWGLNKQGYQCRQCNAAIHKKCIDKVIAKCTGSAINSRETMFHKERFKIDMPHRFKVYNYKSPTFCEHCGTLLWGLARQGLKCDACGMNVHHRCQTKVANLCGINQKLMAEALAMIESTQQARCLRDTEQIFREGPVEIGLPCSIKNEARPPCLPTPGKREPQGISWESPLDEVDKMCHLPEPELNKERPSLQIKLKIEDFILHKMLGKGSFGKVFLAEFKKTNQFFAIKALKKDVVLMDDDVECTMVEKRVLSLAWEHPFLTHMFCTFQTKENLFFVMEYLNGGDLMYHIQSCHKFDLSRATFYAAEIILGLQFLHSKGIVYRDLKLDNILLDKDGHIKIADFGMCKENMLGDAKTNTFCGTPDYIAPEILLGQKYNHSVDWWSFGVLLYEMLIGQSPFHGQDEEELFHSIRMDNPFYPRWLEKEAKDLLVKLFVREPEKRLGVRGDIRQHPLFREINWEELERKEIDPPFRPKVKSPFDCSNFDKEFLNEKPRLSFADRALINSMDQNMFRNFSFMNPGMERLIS
Protocol for Human recombinant PKCθ: The compounds of the invention are tested for their activity on different PKC isoforms according to the following method. Assay is performed in a white with clear bottom 384-well microtiterplate with non-binding surface. The reaction mixture (25 μl) contains 1.5 μM of a tridecapeptide acceptor substrate that mimics the pseudo substrate sequence of PKC α with the Ala→Ser replacement, 10 μM ^33P-ATP, 10 mM Mg(NO3)2, 0.2 mM CaCl2, PKC at a protein concentration varying from 25 to 400 ng/ml (depending on the isotype used), lipid vesicles (containing 30 mol % phosphatidylserine, 5 mol % DAG and 65 mol % phosphatidylcholine) at a final lipid concentration of 0.5 mM, in 20 mM Tris-HCl buffer pH 7.4+0.1% BSA. Incubation is performed for 60 min at room temperature. Reaction is stopped by adding 50 μl of stop mix (100 mM EDTA, 200 μM ATP, 0.1% Triton X-100, 0.375 mg/well streptavidin-coated SPA beads in phosphate buffered saline w/o Ca, Mg). After 10 min incubation at room temperature, the suspension is spun down for 10 min at 300 g. Incorporated radioactivity is measured in a Trilux counter for 1 min. IC50 measurement is performed on a routine basis by incubating a serial dilution of inhibitor at concentrations ranging between 1-1000 μM. IC50 values are calculated from the graph by curve fitting with XL fit® software.

As to `CN1CCN(c2ccc([N+](=O)[O-])c(C3=C(c4c[nH]c5ccccc45)C(=O)NC3=O)c2)CC1` [Example 1, 3-(1H-indol-3-yl)-4-[5-(4-methyl-piperazin-1-yl)-2-nitro-phenyl]-pyrrole-2,5-dione], the IC50 turned out to be 8.9 nM at Human recombinant PKCθ, 2.6 nM at Human recombinant PKCα, 17.5 nM in test [1] and 25.5 nM in test [2].

`Cc1cccc2c(C3=C(c4cc(N5CCN(C)CC5)ccc4[N+](=O)[O-])C(=O)NC3=O)c[nH]c12` [Example 4]: the IC50 at Human recombinant PKCθ came to 10.2 nM; at Human recombinant PKCα, 2.9 nM; in test [1] it was 24 nM; in test [2], 17 nM.
